Source: ChEMBL document CHEMBL1201862, “PubChem BioAssay data set” (2004)
Calls of active or inactive are those of the source.

How the values were obtained:
[1] = biological target: T1, Tyrosine-protein phosphatase non-receptor type 11 (Homo sapiens, UniProt Q06124); test: PTPN11 enzyme inhibitors – biochemical, selectivity assay for STEP inhibitor project, dose response (AID 602367); type: functional; conditions: read-out: IC50_Mean
T1 sequence (Q06124 whole entry): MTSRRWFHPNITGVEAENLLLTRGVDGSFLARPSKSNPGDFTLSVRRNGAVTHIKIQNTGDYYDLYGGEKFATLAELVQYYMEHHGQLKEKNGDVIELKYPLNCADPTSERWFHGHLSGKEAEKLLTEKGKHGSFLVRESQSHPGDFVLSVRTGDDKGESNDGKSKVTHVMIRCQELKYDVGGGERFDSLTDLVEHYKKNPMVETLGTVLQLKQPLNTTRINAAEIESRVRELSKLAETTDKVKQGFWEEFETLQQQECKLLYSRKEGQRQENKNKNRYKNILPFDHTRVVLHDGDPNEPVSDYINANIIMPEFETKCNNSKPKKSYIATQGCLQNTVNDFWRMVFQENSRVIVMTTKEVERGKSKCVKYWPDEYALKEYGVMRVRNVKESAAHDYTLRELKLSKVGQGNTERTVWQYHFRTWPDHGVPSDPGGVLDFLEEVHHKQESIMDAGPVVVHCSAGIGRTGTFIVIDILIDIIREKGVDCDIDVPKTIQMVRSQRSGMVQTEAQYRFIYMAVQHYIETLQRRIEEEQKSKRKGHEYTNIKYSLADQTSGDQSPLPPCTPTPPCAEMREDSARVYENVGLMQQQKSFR

[2] = biological target: DNA dC->dU-editing enzyme APOBEC-3A (Homo sapiens, UniProt P31941); test: A3A deaminase inhibition for selectivity – biochemical, dose response (AID 504722); type: functional
DNA dC->dU-editing enzyme APOBEC-3A, sequence (P31941 whole entry): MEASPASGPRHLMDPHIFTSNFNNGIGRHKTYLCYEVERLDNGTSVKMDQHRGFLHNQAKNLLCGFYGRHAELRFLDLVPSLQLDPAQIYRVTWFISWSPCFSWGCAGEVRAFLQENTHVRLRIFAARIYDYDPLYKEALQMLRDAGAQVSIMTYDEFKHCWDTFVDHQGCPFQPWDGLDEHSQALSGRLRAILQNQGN

[3] = biological target: DNA dC->dU-editing enzyme APOBEC-3G (Homo sapiens, UniProt Q9HC16); test: Dose Response confirmation of small molecule APOBEC3G DNA Deaminase Inhibitors via a fluorescence-based single-stranded DNA deaminase assay. [Related pubchem assays (depositor defined):AID493012, AID493028]; type: functional
[4] = biological target: T2, Tyrosine-protein phosphatase non-receptor type 5 (Homo sapiens, UniProt P54829); test: PTPN5 enzyme inhibition – biochemical, fluorescence intensity, uHTS hits, confirmation (AID 602372); type: functional; conditions: read-out: IC50_Mean
T2 sequence (P54829 whole entry): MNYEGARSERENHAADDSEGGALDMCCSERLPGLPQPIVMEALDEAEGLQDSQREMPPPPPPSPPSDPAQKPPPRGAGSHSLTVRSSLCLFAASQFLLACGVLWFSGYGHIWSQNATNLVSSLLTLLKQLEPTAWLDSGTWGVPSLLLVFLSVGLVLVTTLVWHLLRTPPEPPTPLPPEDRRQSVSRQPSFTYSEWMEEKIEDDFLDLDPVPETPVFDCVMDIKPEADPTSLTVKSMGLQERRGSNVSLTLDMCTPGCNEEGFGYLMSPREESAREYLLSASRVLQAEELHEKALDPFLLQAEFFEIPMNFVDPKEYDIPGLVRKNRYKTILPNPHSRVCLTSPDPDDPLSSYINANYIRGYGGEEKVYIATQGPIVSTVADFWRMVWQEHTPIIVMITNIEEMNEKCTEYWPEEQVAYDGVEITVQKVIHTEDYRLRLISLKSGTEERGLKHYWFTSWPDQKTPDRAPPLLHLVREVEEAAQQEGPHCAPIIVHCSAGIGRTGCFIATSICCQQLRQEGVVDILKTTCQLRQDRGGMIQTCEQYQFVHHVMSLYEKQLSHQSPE

[5] = biological target: T3, Tyrosine-protein phosphatase non-receptor type 22 (Homo sapiens, UniProt Q9Y2R2); test: lymphoid phosphatase LYP inhibitors – biochemical, selectivity assay for STEP inhibitor project, dose response (AID 624241); type: functional
T3 sequence (Q9Y2R2 whole entry): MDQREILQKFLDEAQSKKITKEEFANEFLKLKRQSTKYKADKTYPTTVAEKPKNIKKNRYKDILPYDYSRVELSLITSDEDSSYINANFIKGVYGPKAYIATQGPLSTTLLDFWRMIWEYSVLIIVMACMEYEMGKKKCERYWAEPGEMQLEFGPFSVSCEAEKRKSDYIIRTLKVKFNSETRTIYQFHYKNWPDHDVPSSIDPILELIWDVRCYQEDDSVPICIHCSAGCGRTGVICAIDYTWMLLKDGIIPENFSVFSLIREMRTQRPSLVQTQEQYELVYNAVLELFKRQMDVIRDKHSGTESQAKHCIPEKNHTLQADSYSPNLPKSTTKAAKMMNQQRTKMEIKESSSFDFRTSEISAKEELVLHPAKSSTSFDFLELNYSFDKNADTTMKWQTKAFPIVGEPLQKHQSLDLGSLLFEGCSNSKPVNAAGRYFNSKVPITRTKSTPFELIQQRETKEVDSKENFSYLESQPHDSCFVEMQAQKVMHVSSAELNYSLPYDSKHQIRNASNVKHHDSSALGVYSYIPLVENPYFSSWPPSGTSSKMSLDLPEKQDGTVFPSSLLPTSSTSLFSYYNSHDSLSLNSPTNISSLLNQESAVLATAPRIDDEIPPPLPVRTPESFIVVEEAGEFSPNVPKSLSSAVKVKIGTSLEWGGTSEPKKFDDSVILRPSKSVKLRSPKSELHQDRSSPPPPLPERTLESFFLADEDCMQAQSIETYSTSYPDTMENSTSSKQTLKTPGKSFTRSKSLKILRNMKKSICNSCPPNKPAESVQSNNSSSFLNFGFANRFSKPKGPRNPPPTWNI

[6] = biological target: Dual specificity protein phosphatase 3 (Homo sapiens, UniProt P51452); test: VHR phosphatase inhibition, dose response, selectivity assay for STEP inhibitor project, biochemical (AID 602374); type: functional; conditions: read-out: IC50_Mean
Dual specificity protein phosphatase 3, sequence (P51452 whole entry): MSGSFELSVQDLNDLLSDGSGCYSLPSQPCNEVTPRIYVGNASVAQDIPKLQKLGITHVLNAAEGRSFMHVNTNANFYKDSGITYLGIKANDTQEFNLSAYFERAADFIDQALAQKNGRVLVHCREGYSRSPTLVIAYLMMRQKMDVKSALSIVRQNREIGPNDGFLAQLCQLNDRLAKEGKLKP

Beta-lactamase [7] = biological target: Beta-lactamase (Pseudomonas aeruginosa, UniProt Q79MP6);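 further: biochemical dose-response test of metallo-beta-lactamase enzyme inhibition, read out by epi-absorbance; purified recombinant IMP-1 metallo-beta-lactamase with nitrocefin as substrate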
ORF 73 = ORF 73 (Human herpesvirus 8, UniProt O40947); test: KSHV LANA DNA-binding disruption – biochemical, fluorescence polarization, cherry-picked samples, dose response (AID 504725); design: species or system Human gammaherpesvirus 8;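 further: fluorescence polarization of a labeled DNA duplex reporting LANA DNA binding; potency is for inhibitors that block LANA binding to the DNA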
Insulin-degrading enzyme [8] = biological target: T4, Insulin-degrading enzyme (Homo sapiens, UniProt P14735); test: cellular IDE activation of Abeta substrate cleavage – fluorescence polarization, HEK cells, dose response (AID 588439); type: functional, cell-based
T4 sequence (P14735 whole entry): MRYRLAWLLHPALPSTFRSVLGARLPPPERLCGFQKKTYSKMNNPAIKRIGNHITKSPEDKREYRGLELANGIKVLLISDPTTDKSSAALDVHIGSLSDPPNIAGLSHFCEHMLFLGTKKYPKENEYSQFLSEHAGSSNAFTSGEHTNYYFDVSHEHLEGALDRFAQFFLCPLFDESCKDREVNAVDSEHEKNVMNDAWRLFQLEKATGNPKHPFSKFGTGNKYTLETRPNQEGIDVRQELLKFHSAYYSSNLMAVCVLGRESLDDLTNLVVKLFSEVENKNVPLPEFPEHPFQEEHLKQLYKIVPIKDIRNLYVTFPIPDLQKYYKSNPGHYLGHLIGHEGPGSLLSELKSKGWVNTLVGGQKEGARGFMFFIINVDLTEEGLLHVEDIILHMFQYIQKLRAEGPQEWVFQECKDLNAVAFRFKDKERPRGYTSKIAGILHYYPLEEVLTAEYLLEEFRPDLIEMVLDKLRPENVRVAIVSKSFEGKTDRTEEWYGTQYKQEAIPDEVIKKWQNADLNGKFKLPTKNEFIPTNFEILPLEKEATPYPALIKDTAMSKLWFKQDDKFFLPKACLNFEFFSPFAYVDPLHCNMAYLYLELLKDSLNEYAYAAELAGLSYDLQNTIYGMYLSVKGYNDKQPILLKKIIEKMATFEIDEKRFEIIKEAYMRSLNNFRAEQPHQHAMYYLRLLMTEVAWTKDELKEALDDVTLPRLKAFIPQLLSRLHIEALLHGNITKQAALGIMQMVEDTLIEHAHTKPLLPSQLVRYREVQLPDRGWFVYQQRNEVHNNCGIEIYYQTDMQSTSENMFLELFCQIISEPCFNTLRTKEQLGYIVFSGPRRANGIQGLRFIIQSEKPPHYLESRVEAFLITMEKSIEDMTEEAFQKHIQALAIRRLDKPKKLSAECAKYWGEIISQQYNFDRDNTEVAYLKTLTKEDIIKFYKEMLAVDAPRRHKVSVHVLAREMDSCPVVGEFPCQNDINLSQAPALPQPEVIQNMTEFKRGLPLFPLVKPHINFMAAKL

[9] = biological target: T5, Voltage-gated N-type calcium channel alpha-1B subunit/Amyloid beta A4 precursor protein-binding family A member 1 (Homo sapiens, UniProt Q00975+Q02410); type: protein assay
T5 sequence (Q00975 whole entry): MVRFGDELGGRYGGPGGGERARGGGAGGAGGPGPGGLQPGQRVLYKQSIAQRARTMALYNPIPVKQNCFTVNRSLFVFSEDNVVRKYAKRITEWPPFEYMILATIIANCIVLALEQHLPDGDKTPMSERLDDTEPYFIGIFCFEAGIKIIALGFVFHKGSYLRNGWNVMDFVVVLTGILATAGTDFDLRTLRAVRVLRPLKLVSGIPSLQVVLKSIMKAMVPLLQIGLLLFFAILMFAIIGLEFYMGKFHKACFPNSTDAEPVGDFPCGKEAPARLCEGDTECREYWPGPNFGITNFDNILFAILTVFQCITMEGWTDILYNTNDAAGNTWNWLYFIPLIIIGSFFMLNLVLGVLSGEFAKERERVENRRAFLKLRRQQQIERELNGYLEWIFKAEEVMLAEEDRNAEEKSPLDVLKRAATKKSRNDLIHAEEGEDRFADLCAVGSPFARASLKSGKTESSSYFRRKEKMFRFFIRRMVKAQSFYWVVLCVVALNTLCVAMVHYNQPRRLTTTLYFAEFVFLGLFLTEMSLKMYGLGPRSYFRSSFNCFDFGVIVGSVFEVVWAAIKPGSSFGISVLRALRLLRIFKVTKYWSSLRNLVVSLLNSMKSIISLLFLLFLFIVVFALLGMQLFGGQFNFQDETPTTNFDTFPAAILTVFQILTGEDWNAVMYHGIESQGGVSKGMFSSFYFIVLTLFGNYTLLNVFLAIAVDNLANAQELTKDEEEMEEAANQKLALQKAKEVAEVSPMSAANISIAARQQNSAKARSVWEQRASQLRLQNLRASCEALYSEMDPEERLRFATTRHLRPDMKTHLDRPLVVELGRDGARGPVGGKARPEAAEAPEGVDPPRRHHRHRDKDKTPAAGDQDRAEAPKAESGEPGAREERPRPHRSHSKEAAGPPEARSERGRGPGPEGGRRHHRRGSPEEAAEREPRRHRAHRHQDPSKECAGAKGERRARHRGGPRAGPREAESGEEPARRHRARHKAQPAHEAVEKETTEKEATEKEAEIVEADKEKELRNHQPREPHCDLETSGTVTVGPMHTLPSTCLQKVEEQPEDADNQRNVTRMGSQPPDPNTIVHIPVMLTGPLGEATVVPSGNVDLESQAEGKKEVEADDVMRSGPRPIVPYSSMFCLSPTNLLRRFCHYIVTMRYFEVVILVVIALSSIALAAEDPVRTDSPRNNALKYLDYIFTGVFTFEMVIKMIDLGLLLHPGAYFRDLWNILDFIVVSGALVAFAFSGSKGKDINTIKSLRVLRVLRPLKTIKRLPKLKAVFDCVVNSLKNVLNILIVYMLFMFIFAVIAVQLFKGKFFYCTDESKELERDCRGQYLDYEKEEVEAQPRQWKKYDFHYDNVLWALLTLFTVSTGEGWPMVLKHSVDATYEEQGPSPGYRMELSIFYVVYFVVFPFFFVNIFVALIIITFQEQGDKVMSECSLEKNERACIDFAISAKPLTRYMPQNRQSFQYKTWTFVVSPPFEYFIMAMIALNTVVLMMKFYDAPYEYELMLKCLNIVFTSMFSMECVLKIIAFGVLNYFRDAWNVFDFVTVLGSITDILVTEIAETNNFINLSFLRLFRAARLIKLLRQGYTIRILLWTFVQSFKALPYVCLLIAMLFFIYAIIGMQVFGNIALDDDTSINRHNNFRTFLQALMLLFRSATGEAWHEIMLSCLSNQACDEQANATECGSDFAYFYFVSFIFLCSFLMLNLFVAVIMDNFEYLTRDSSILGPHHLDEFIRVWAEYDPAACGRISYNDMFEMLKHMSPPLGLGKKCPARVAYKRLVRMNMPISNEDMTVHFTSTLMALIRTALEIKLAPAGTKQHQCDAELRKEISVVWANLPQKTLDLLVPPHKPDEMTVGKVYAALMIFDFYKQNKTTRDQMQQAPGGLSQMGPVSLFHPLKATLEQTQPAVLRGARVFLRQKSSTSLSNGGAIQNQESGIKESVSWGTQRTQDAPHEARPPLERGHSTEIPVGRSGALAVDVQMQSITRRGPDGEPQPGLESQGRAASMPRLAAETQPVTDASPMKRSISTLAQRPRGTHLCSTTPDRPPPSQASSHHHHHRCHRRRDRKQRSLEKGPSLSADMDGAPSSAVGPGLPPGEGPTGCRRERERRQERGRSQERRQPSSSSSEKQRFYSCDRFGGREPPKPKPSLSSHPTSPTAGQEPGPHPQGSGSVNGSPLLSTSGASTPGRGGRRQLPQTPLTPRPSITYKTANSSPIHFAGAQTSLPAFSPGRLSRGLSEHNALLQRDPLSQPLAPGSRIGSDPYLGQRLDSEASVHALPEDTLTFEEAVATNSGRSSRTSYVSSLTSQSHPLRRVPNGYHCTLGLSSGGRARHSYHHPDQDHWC
T5 sequence (Q02410 whole entry): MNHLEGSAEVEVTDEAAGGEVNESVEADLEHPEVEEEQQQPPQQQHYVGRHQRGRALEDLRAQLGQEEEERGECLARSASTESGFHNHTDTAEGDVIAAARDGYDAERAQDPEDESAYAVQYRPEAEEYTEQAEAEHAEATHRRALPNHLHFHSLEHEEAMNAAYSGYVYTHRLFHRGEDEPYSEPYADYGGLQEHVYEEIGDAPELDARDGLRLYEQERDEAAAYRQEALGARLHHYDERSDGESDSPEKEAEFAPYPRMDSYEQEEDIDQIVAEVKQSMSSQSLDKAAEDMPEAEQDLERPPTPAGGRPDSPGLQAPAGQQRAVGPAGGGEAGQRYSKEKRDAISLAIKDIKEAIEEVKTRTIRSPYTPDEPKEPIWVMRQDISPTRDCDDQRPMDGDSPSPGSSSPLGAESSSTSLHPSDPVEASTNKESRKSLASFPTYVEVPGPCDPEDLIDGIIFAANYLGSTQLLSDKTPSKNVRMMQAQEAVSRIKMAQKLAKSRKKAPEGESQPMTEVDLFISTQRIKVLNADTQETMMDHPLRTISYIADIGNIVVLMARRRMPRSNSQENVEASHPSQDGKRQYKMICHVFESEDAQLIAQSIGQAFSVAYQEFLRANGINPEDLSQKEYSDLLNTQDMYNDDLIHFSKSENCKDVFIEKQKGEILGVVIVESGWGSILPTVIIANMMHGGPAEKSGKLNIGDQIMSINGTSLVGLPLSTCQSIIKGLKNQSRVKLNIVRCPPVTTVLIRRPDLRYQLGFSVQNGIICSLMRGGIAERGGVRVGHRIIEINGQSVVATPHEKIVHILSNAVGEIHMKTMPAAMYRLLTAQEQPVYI

[10] = biological target: T5, Voltage-gated N-type calcium channel alpha-1B subunit/Amyloid beta A4 precursor protein-binding family A member 1; type: protein assay; remark: listed apart in the source
Beta-lactamase [11] = biological target: Beta-lactamase (Salmonella choleraesuis (strain SC-B67), UniProt Q5J463)
Beta-lactamase (Salmonella choleraesuis (strain SC-B67), UniProt Q5J463), sequence (Q5J463 whole entry): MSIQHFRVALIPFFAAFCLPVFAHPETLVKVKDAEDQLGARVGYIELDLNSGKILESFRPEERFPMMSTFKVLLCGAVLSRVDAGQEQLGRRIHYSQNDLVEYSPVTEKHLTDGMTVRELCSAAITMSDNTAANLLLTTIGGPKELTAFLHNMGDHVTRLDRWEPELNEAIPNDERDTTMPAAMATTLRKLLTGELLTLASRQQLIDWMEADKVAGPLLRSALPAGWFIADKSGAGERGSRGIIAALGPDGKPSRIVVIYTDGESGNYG

HEK293 [12] = test: optical interference in Abeta FP readout, dose response, artefact control for IDE activator project, biochemical, fluorescence polarization (AID 588442); type: functional, cell-based; conditions: Homo sapiens
HEK293 [13] = test: membrane integrity loss in HEK cells – cell-based, fluorescence, cytotoxicity control for IDE activator project, dose response (AID 588440); type: functional; conditions: Homo sapiens;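 further: cytotoxicity by LDH release measuring loss of membrane integrity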
Keap1/Nrf2 = Keap1/Nrf2 (Homo sapiens, UniProt Q14145); test: disruptors of Keap1 binding to Nrf2 peptide – biochemical, fluorescence polarization, cherry-picked samples, dose response (AID 588683)
Keap1/Nrf2, sequence (Q16236 whole entry): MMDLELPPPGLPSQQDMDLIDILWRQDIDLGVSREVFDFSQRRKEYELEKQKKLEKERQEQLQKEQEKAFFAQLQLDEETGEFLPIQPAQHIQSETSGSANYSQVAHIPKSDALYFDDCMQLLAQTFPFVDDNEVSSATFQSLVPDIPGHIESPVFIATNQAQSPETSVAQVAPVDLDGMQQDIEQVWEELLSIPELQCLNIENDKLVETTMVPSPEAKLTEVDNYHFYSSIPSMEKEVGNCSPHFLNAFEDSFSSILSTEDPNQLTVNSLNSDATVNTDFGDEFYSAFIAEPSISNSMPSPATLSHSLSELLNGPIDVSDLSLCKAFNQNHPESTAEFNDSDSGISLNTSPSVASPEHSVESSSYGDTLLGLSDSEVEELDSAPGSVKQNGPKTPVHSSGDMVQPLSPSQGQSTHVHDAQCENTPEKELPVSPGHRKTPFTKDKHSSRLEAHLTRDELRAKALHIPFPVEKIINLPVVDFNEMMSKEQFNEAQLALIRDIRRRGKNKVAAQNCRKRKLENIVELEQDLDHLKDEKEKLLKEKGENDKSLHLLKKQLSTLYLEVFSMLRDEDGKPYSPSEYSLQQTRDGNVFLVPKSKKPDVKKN
Keap1/Nrf2, sequence (Q14145 whole entry): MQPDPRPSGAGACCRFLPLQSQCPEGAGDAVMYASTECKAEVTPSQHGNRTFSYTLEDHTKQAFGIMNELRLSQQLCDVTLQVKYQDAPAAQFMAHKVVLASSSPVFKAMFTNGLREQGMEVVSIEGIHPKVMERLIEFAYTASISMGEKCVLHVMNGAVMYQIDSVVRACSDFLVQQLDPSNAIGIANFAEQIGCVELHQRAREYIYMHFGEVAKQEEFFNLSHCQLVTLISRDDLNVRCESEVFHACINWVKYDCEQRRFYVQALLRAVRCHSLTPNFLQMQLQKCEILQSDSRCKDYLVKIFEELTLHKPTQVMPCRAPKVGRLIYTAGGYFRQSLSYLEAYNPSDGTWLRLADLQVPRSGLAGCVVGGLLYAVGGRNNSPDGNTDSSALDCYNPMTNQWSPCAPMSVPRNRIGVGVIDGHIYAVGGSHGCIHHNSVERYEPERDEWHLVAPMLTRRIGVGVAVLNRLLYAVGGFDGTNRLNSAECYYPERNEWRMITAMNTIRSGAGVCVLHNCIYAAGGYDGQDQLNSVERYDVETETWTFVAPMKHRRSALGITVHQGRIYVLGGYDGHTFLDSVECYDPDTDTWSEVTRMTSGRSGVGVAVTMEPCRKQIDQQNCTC

Insulin-degrading enzyme [14] = biological target: T4, Insulin-degrading enzyme; test: recombinant IDE activation, cell-free – biochemical, fluorescence polarization, counter-screen for IDE activator project, dose response (AID 588681)

| SMILES | IC50 [1] | IC50 [2] | IC50 [3] | IC50 [4] | IC50 [5] | IC50 [6] | IC50 (Beta-lactamase [7]) | AC50 (ORF 73) | EC50 (Insulin-degrading enzyme [8]) | IC50 [9] | IC50 [10] | IC50 (Beta-lactamase [11]) | EC50 (HEK293 [12]) | IC50 (HEK293 [13]) | AC50 (Keap1/Nrf2) | EC50 (Insulin-degrading enzyme [14]) |
| --- | --- | --- | --- | --- | --- | --- | --- | --- | --- | --- | --- | --- | --- | --- | --- | --- |
| CCN1CCN(C(=S)c2ccc(Cl)cc2)CC1 | 0.318 µM (active) | > 100 µM (inactive) | 5.06 µM (active) | 8.91 µM (active) | 12.8 µM (active) | 0.341 µM (active) | – | – | – | – | – | – | – | – | – | – |
| O=C1c2cccc3c(O)ccc(c23)C(=O)N1Cc1ccco1 | – | – | – | – | – | – | 14.1 µM (inactive) | 0.966 µM (active) | > 54.7 µM (inactive) | 9.17 µM (active) | > 50 µM (inactive) | 7.5 µM (active) | > 54.7 µM (inactive) | > 89.3 µM (inactive) | 1.5 µM (active) | > 54.7 µM (inactive) |
